For 1 molecule, EC50 results are on record in publication PMC10407194 (Current Research in Insect Science, 2023).

Structures are written as SMILES.

The target of the test is T1, TcTRPA1 (Tribolium castaneum, UniProt A0A139WJZ5).
T1 sequence (A0A139WJZ5 1-1242): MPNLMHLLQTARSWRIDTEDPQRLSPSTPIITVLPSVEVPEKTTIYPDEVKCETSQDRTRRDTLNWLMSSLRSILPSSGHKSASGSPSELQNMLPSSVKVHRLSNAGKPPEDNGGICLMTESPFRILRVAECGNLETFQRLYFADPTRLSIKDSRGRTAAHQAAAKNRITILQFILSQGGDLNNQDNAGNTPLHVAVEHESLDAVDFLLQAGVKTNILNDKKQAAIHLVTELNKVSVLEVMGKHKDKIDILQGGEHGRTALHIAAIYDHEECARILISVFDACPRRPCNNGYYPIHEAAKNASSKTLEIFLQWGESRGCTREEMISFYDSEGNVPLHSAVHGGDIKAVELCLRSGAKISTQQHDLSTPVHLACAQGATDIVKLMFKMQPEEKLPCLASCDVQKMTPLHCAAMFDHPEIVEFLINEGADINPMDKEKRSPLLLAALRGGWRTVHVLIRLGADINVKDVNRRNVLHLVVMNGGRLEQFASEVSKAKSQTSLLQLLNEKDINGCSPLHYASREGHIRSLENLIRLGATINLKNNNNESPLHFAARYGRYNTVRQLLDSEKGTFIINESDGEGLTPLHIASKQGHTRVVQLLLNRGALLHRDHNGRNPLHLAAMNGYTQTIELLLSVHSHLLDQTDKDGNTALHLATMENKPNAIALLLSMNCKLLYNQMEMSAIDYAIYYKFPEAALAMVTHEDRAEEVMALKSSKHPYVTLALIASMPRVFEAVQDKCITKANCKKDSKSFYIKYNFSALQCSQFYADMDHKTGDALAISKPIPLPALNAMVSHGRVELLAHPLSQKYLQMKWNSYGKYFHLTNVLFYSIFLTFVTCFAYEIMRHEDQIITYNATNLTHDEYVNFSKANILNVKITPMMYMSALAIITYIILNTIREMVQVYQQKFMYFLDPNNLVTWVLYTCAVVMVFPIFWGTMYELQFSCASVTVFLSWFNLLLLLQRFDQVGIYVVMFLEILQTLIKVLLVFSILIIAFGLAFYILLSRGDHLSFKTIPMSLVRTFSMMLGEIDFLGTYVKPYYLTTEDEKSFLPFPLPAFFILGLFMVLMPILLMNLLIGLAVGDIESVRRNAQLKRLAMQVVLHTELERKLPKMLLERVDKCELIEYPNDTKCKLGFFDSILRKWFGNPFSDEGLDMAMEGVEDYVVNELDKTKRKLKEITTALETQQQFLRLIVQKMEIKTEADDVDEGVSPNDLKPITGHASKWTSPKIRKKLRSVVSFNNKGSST
As to the kind of experiment: Ca2+ influx fluorescence assay. It is filed as cell-based.

Consider `CC(C)=CCCC(C)CC=O` (stereo not shown) [citronellal], for which the EC50 worked out at 69.7 µM.

Usually EC50 stands for the concentration needed to bring the measured effect to its halfway point. Lower therefore signals a more potent agent.
